Test systems include 786-0 renal; MALME-3M melanoma; SW-620 colon; A498 renal; SNB-75 CNS; U251 CNS; SK-MEL-5 melanoma; SF-268 CNS; HCT-116 colon; OVCAR-5 ovarian.
What all share (test): NCI anticancer screen, dose series, 48 h

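Cultured in 96-well plates, cells were exposed to test compound for 48 hours across five concentrations. Definition used: TGI = concentration required for complete inhibition of growth.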

Consider `Cc1c2c(OCC(O)CN3CCN(c4ccccc4)CC3)nn(C)c(=O)c2c(C)n1-c1ccccc1` (stereo not given), for which the TGI with 786-0 renal was determined as 42.3 µM; in the experiment with MALME-3M melanoma it was 40.7 µM; in the experiment with SW-620 colon, 98.8 µM; in the experiment with A498 renal it was 58.6 µM; in the experiment with SNB-75 CNS it was 75.5 µM; in the experiment on U251 CNS, 30.2 µM. Besides, the TGI in the experiment with SK-MEL-5 melanoma was 30.3 µM; with SF-268 CNS, 73.5 µM; in the experiment with HCT-116 colon, 31.3 µM; in the experiment on OVCAR-5 ovarian, 62 µM.

In the case of `C#C/C=C\CCCCCCCCCCCCCC/C=C\CCCCC#CC(O)C#CCCCC/C=C\CCCCCC/C=C/C(O)C#C` (stereo not given), the TGI is 26.7 µM in the experiment on 786-0 renal; 33.8 µM in the experiment on MALME-3M melanoma; more than 52.9 µM in the experiment on SW-620 colon; 74.4 µM with A498 renal; more than 75 µM with SNB-75 CNS; more than 75 µM in the experiment with U251 CNS. The TGI with SK-MEL-5 melanoma was 17.6 µM; with SF-268 CNS, 44.4 µM; in the experiment on HCT-116 colon, more than 32.8 µM; in the experiment with OVCAR-5 ovarian, more than 75 µM.

Take `CC(Oc1ccccc1Cl)C(=O)NN1C(=O)CC(=O)NC1=S` (stereo not given): the TGI in the experiment on 786-0 renal, in the experiment with MALME-3M melanoma, in the experiment on SW-620 colon, with A498 renal, with SNB-75 CNS and in the experiment with U251 CNS was more than 100 µM throughout. Further, the TGI with SK-MEL-5 melanoma, in the experiment with SF-268 CNS, in the experiment with HCT-116 colon and in the experiment on OVCAR-5 ovarian was more than 100 µM each time.

For `O=C(O)c1cc(=O)c2c(OCC(O)COc3cccc4oc(C(=O)O)cc(=O)c34)cccc2o1`, the TGI in the experiment with 786-0 renal is more than 100 µM; with MALME-3M melanoma it was more than 100 µM; in the experiment on SW-620 colon, more than 100 µM; with A498 renal, more than 83.6 µM; in the experiment with SNB-75 CNS it was more than 100 µM; with U251 CNS it was more than 100 µM. The TGI in the experiment on SK-MEL-5 melanoma was 99.2 µM; in the experiment with SF-268 CNS it was more than 100 µM; in the experiment with HCT-116 colon, more than 100 µM; with OVCAR-5 ovarian, more than 100 µM.

`OCCCNc1ncnc2[nH]ncc12`: the TGI with 786-0 renal, in the experiment on MALME-3M melanoma, in the experiment on SW-620 colon, in the experiment with A498 renal, with SNB-75 CNS and in the experiment on U251 CNS was more than 100 µM each time. The TGI in the experiment with SK-MEL-5 melanoma, in the experiment on SF-268 CNS, with HCT-116 colon and in the experiment with OVCAR-5 ovarian was more than 100 µM throughout.

Turning to `CCOC(=O)CCSc1nc2ccc(I)cc2c(=O)n1Cc1ccccc1`, the TGI in the experiment with 786-0 renal is more than 96.8 µM; with MALME-3M melanoma, 48.4 µM; in the experiment with SW-620 colon, more than 100 µM; with A498 renal it was more than 79.2 µM; in the experiment on SNB-75 CNS, more than 100 µM; in the experiment with U251 CNS, more than 100 µM. The TGI in the experiment on SK-MEL-5 melanoma is 32 µM; in the experiment on SF-268 CNS it was more than 91.2 µM; with HCT-116 colon it was more than 74.2 µM; with OVCAR-5 ovarian, more than 100 µM.

As to `CC(C)CC(=O)NC(C(=O)NC(C(=O)NC(CC(C)C)C(O)CC(=O)NC(C)C(=O)NC(CC(C)C)C(O)CC(=O)O)C(C)C)C(C)C` (stereo not given), the TGI in the experiment with 786-0 renal, with MALME-3M melanoma, in the experiment on SW-620 colon, in the experiment on A498 renal, with SNB-75 CNS and with U251 CNS was more than 100 µM in each case. In addition, the TGI in the experiment with SK-MEL-5 melanoma, in the experiment with SF-268 CNS, in the experiment with HCT-116 colon and in the experiment on OVCAR-5 ovarian was more than 100 µM each time.
